Values of other authors as cited in patent US7956090B2, “Composition and method for increasing the anabolic state of muscle cells” (priority 2007, dated 2011).

What was measured:
[1] = about 1.5 g daily after intense exercise for 42 days
[2] = condensation and cyclization upon dissolution in water

Row | Structure (SMILES) | delayed onset muscle soreness [1] | total lean soft tissue mass [1] | stability in aqueous solution [2]
1 | CC(C)CC(O)C(=O)O (stereo not drawn) [HICA, 2-hydroxy-4-methylvaleric acid] | little to no delayed onset muscle soreness | statistically significant increase | 
2 | CC(=O)C(=O)O [pyruvate, pyruvic acid] |  |  | poor stability
